What was measured:
[1] = Evaluation of conversion rate to active form in buffer solution (Experimental Example 1); format: physicochemical; details: for Production rate of Alvocidib / Residual rate: 37° C., 25 umol/L in buffer solution
Outline: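 Prodrugs were held at 25 umol/L and 37° C in 50 mM citrate (pH 5.0, 5.5) or 50 mM phosphate (pH 6.0–7.4) buffer. Parent remaining and Alvocidib formed were quantified by HPLC at 0, 0.5, 1, 2 and 3 hours.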

[2] = Pharmacokinetic test, intravenous solution and liposome formulations in mice (Experimental Example 6); format: in vivo; details: female BALB/c mice
Outline: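 Solution or liposome formulation (ammonium sulfate-loaded HSPC/cholesterol/PEG-lipid liposomes, outer buffer 10 mM tartrate/10% sucrose pH 4) given IV to 7-week-old female BALB/c mice. Jugular blood sampled without anesthesia up to 24 h (solution) or 72 h (liposome); test compound and Alvocidib in plasma measured by LC-MS/MS.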

CN1CC[C@H](c2c(OC(=O)N(CCF)CC3CCCCN3)cc(O)c3c(=O)cc(-c4ccccc4Cl)oc23)[C@H](O)C1 (stereo partly drawn) [Example 11, 2-(2-chlorophenyl)-5-hydroxy-8-[(3S,4R)-3-hydroxy-1-methylpiperidin-4-yl]-4-oxo-4H-1-benzopyran-7-yl (2-fluoroethyl) [(piperidin-2-yl)methyl]carbamate]
Production rate of Alvocidib ([1]; pH5.0, 0 hr): 0.2%
Residual rate ([1]; pH5.0, 0 hr): 83.2%
Stability in buffer solution at pH 5 ([1]; pH 5, 37° C., up to 2 or 3 hours): stable
Production rate of Alvocidib ([1]; pH5.0, 0.5 hr): 0.9%
Residual rate ([1]; pH5.0, 0.5 hr): 82.7%
Production rate of Alvocidib ([1]; pH5.0, 1 hr): 1.8%
Residual rate ([1]; pH5.0, 1 hr): 81.3%
Production rate of Alvocidib ([1]; pH5.0, 2 hr): 3.3%
Residual rate ([1]; pH5.0, 2 hr): 80.5%
Production rate of Alvocidib ([1]; pH5.0, 3 hr): 4.8%
Residual rate ([1]; pH5.0, 3 hr): 79.1%
Production rate of Alvocidib ([1]; pH5.5, 0 hr): 0.2%
Residual rate ([1]; pH5.5, 0 hr): 83.6%
Production rate of Alvocidib ([1]; pH5.5, 0.5 hr): 2.5%
Residual rate ([1]; pH5.5, 0.5 hr): 81.8%
Production rate of Alvocidib ([1]; pH5.5, 1 hr): 4.8%
Residual rate ([1]; pH5.5, 1 hr): 79.2%
Production rate of Alvocidib ([1]; pH5.5, 2 hr): 9.4%
Residual rate ([1]; pH5.5, 2 hr): 75.0%
Production rate of Alvocidib ([1]; pH5.5, 3 hr): 14.0%
Residual rate ([1]; pH5.5, 3 hr): 70.2%
Production rate of Alvocidib ([1]; pH6.0, 0 hr): 0.3%
Residual rate ([1]; pH6.0, 0 hr): 83.7%
Production rate of Alvocidib ([1]; pH6.0, 0.5 hr): 8.5%
Residual rate ([1]; pH6.0, 0.5 hr): 76.0%
Production rate of Alvocidib ([1]; pH6.0, 1 hr): 16.9%
Residual rate ([1]; pH6.0, 1 hr): 66.6%
Production rate of Alvocidib ([1]; pH6.0, 2 hr): 32.6%
Residual rate ([1]; pH6.0, 2 hr): 49.8%
Production rate of Alvocidib ([1]; pH6.0, 3 hr): 39.4%
Residual rate ([1]; pH6.0, 3 hr): 44.8%
Production rate of Alvocidib ([1]; pH6.5, 0 hr): 0.8%
Residual rate ([1]; pH6.5, 0 hr): 81.4%
Production rate of Alvocidib ([1]; pH6.5, 0.5 hr): 23.6%
Residual rate ([1]; pH6.5, 0.5 hr): 60.4%
Production rate of Alvocidib ([1]; pH6.5, 1 hr): 46.5%
Residual rate ([1]; pH6.5, 1 hr): 35.6%
Production rate of Alvocidib ([1]; pH6.5, 2 hr): 60.2%
Residual rate ([1]; pH6.5, 2 hr): 23.7%
Production rate of Alvocidib ([1]; pH6.5, 3 hr): 62.7%
Residual rate ([1]; pH6.5, 3 hr): 21.4%
Production rate of Alvocidib ([1]; pH7.0, 0 hr): 2.1%
Residual rate ([1]; pH7.0, 0 hr): 80.0%
Production rate of Alvocidib ([1]; pH7.0, 0.5 hr): 53.4%
Residual rate ([1]; pH7.0, 0.5 hr): 30.1%
Production rate of Alvocidib ([1]; pH7.0, 1 hr): 62.1%
Residual rate ([1]; pH7.0, 1 hr): 22.0%
Production rate of Alvocidib ([1]; pH7.0, 2 hr): 67.0%
Residual rate ([1]; pH7.0, 2 hr): 17.1%
Production rate of Alvocidib ([1]; pH7.0, 3 hr): 71.6%
Residual rate ([1]; pH7.0, 3 hr): 12.4%
Production rate of Alvocidib ([1]; pH7.4, 0 hr): 4.6%
Residual rate ([1]; pH7.4, 0 hr): 79.7%
Conversion to Alvocidib at pH 7.4 ([1]; pH 7.4, 37° C., up to 3 hours): rapidly converted to Alvocidib
Production rate of Alvocidib ([1]; pH7.4, 0.5 hr): 68.3%
Residual rate ([1]; pH7.4, 0.5 hr): 16.2%
Production rate of Alvocidib ([1]; pH7.4, 1 hr): 67.0%
Residual rate ([1]; pH7.4, 1 hr): 16.7%
Production rate of Alvocidib ([1]; pH7.4, 2 hr): 67.9%
Residual rate ([1]; pH7.4, 2 hr): 16.2%
Production rate of Alvocidib ([1]; pH7.4, 3 hr): 67.3%
Residual rate ([1]; pH7.4, 3 hr): 15.9%
Blood retention of liposome formulation compared with the corresponding solution formulation [2]: higher blood retention
